The source of these data is patent US5223494A, “Orally administered porphyrins to control intestinal iron absorption” (The Rockefeller University, priority 1990, dated 1993).

pKi: −log10 of the molar value. Where two headings read alike, the source gives them in different places.

Data set [1] relates to intestinal microsomal heme oxygenase. In words: Competitive inhibition of intestinal microsomal heme oxygenase in vitro. The class given is biochemical, rat. As for the experimental part: SnPP (o) was added to intestinal microsomes at concentrations of […]. The heme concentration was 50 uM. Heme oxygenase activity was determined as described below under Materials and Methods. Each point represents the mean of at least 3 individual experiments. Similar results obtain for other metalloporphyrins within the scope of the present invention.
(§1) Animals were sacrificed at the times indicated in the legend to the Table and in the above and following descriptions of the Figures, and then exhaustively perfused in situ with ice-cold 0.9% NaCl through the left ventricle. The small intestine was cut at the pyloric junction and the entire length of the intestine irrigated in situ with 30 ml of ice-cold 0.9% NaCl to remove intestinal contents. Beginning at 5 cm, a 20 cm segment of small intestine was excised and irrigated once more with 30 ml of saline. The mucosa was then gently scraped off with a stainless steel scalpel and placed in ice-cold potassium phosphate buffer (0.1M, pH 7.4), containing sucrose (0.25M), 20% glycerin (v/v), trypsin inhibitor (5 mg/ml), and heparin (3 U/ml), as described by Stohs et al, Arch. Biochem Biophys. 177: 105-116 (1976). Following sonication and homogenization, intestinal microsomes were then prepared by differential centrifugation as described in Rosenberg et al, Biochem. Pharmacol. 38: 1155-1161 (1988). The microsomal pellet was rinsed and resuspended in 1.5 ml of potassium phosphate buffer (0.1M, pH 7.4) to a protein concentration of approximately 5-10 mg/ml. Microsomes were freshly prepared on a daily basis for all subsequent assays. The activity of heme oxygenase was determined as described in Maines et al, J. Biol. Chem. 250: 4171-4178 (1975), using the 105,000xg supernatant fraction derived from normal rat liver as the source of biliverdin reductase, and a hemin concentration of 50 uM. Bilirubin formation was calculated using an absorption coefficient of 40 mm^1 cm^1 between 464 and 530 nm (See Maines et al, Proc. Natl. Acad. Sci. USA 71: 4293-4297 (1974)). Protein content was determined by method of Lowry et al, J. Biol. Chem. 193: 265-275 (1951) suing bovine serum albumin as a standard.
This is similar to the Km reported for heme in hepatic and splenic microsomes (See Kappas et al, J. Clin. Invest. 77: 335-339 (1986); Yoshinaga et al, J. Biol. Chem. 257: 7778-7785 (1982)).

Data set [2] relates to intestinal heme oxygenase. Conditions: in vitro or in vivo after administration of SnPP; Hintz et al 1988; cited from earlier work.
Data set [3] deals with intestinal microsomal heme oxygenase. In words: Intestinal microsomal heme oxygenase activity after a single dose to rats. The class given is in vivo, rat. To be noted: for Heme Oxygenase Activity in the Gut, Average: control 2.70 + 0.09. As for the experimental part: (§2) Rats were maintained on Standard Purina Rodent Chow (St. Louis, Mo.), and were allowed to acclimatize to a light-cycled room (12 hr light/dark cycle) for at least one week prior to study. SnPP was dissolved in a small volume (0.2 ml/ml final volume) of 0.2N Na3 PO4 12H2 O, adjusted to pH 7.4 with 1M HCl and made up to a final volume with 0.9% NaCl under subdued light. SnPP was administered either subcutaneously or by gavage in a single dose of 25 umoles/kg body weight (4.0 ml/kg body weight). Control rats received an equivalent volume of diluent. All rats were allowed free access to food and water.
as §1
A single does of SnPP (25 umoles/kg b.w.) was administered either orally or parenterally to rats, and heme oxygenase levels were determined in the small intestinal epithelium at the times indicated in FIG. 1. This dose was selected to match that previously used by other investigators (See Hintz et al, Ped. Res. 23: 50-53 (1988)). Following oral treatment, heme oxygenase activity was rapidly (within 3 hours) inhibited (50% of controls), but the levels returned to normal within 16-24 hours after treatment.

For data set [4] the following is noted: rat, in vivo, po. The method, then: as §2
All tin analyses were performed on Zeeman/5000 atomic absorption spectrophotometer equipped with an HGA-500 graphite furnace Perkin-Elmer Corp., Norwalk, Conn.). The graphite furnace utilized the L'vov platform (See Slavin et al, At. Spectrosc. 2: 137-145 (1981)) with an appropriate wavelength (286.4 nm) and instrumental operating conditions as recommended by the manufacturer and optimized in our laboratory for tin measurement. All tin analyses included magnesium nitrate and ammonium phosphate in 20% nitric acid as a matrix modified.
For Table II: SnPP was adminsitered to rats in a single dose (25 umoles/kg body weight) either orally or subcutaneously. Tissue tin levels were determined 48 hours later by graphite furnace atomic absorption spectroscopy. […]

[5] abbreviates: SnPP 25 umoles/kg single oral dose, rat.

For orientation: Km means the substrate concentration at which the rate is half of its maximum. Usually pKi stands for the Ki on a negative log10 scale, so that one unit is a factor of ten. Read a low pKi as a large Ki.

In the case of `C=Cc1c2[n-]c(c1C)/C=c1\[n-]/c(c(C)c1C=C)=C\c1[n-]c(c(CCC(=O)O)c1C)/C=c1\[n-]c(c(C)c1CCC(=O)O)=C2.[Sn+4]` [SnPP, tin protoporphyrin], the Km in data set [1] (SnPP 0.05 uM, intestinal microsomes, read-out: Km for heme in presence of SnPP) was found to be 23.9 µM. Moreover, the Km in data set [1] (SnPP 0.1 uM, intestinal microsomes, read-out: Km for heme in presence of SnPP) was found to be 56.2 µM. Also, in data set [1] (SnPP 0.05 and 0.1 uM), the “increase in the Km for heme” value is 3- to 7 fold. In addition, in data set [1] (SnPP 0.05 and 0.1 uM added to incubation mixtures), the “type of inhibition of enzyme activity” value is “marked competitive inhibition”. Moreover, in data set [1] (intestinal microsomes), the pKi was 7.77. Besides, the “inhibition of intestinal heme oxygenase” value in data set [2] is “no inhibition”. Also, in data set [3] (setting [5]), the “heme oxygenase activity in small intestinal epithelium” value was 50 % of controls, the “time for heme oxygenase levels to return to normal” value was 16 to 24 h and the “time to inhibition of heme oxygenase activity” value is no more than 3 h. Also, the “inhibition of heme oxygenase activity” value in data set [3] (SnPP 25 umoles/kg single parenteral (subcutaneous) dose, rat) was determined as 65 % inhibition. In data set [3] (SnPP 25 umoles/kg single parenteral dose, rat), the “persistence of decreased heme oxygenase activity” value is “at least 48 hours”. For the same molecule, the “absorption from the gastrointestinal tract” value in data set [4] is recorded as “very low degree of absorption”.

Take `C=CC1=C(C)c2cc3[n-]c(cc4[n-]c(cc5nc(cc1n2)C(C)=C5C=C)c(C)c4CCC(=O)O)c(CCC(=O)O)c3C.[Fe+2]` [heme, reference compound]: the Km in data set [1] (intestinal microsomes, no inhibitor, linear regression, read-out: apparent Km for the substrate heme) came to 8.21 µM.

As for chromium mesoporphyrin [CrMP], the “Heme Oxygenase Activity in the Gut, Average” value was 0.64 + 0.38 in data set [3] (3 hours after oral 25 umol/Kg CrMP), 1.04 + 0.02 in data set [3] (16 hours after oral 25 umol/Kg CrMP), 1.85 + 0.07 in data set [3] (24 hours after oral 25 umol/Kg CrMP) and 2.57 + 0.07 in data set [3] (48 hours after oral 25 umol/Kg CrMP).
